Experiments:
[1] = test system: green foxtail; assay: Test Example 5: herbicidal effect by foliage application, plastic box (Table 20, symbol G); format: in vivo, green foxtail (Setaria viridis); settings: for G: green foxtail, herbicidal effect grade: three weeks after application
Description: (§1) [Test Example 5] Herbicidal Effect Test by Foliage Application
(§2) Sterilized diluvial soil was placed in a plastic box having a length of 21 cm, a width of 13 cm, and a depth of 7 cm. The seeds of each of southern crabgrass, green foxtail, barnyard grass, wild oat, blackgrass, Italian ryegrass, windgrass, velvetleaf, redroot pigweed, lambsquarters, chickweed, false cleavers, persian speedwell, corn, soybean, rice, wheat, beet, and rapeseed were sowed in a spot-like manner and covered with the soil having a thickness of about 1.5 cm. Thereafter, the plants were grown in a greenhouse at 25° C. to 30° C. After 14-day growth of the plants, the emulsion agent of the compound of the present invention prepared according to Formulation Example 2 was diluted with water so as to achieve a predetermined herbicide amount, and the diluted emulsion agent was uniformly applied to a foliage part with a small-sized spray. Three weeks after the herbicide application, the effect of the herbicide on each plant was evaluated according to the criteria of Test Example 1.

[2] = test system: wild oat; assay: Test Example 5: herbicidal effect by foliage application, plastic box (Table 20, symbol I); format: in vivo, wild oat (Avena fatua); settings: foliage application, AAH 320 g/ha, evaluated three weeks after application
Description: as §1, §2

[3] = test system: Italian ryegrass; assay: Test Example 5: herbicidal effect by foliage application, plastic box (Table 20, symbol K); format: in vivo, Italian ryegrass (Lolium multiflorum); settings: foliage application, AAH 320 g/ha, evaluated three weeks after application
How it was run: (§3)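 Sow seeds spot-wise in sterilized diluvial soil; cover with ~1.5 cm soil. Grow 14 days in greenhouse, 25° C. to 30° C. Spray foliage with emulsion diluted to predetermined amount. Rate effect after 3 weeks.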

[4] = test system: rice flat sedge; assay: Test Example 3: herbicidal effect by foliage application, Wagner pot (Table 18, symbol E); format: in vivo, rice flat sedge (Cyperus iria); settings: amount of applied herbicide 320 g/ha
How it was run: (§4)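 Plants were sown in alluvial soil held under 0.1–0.5 cm standing water and grown 14 days in a greenhouse at 25–30 °C. An emulsifiable formulation, water-diluted to the set dose, was then sprayed onto the foliage, and effects were scored three weeks later using previously defined criteria.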

[5] = test system: Chinese sprangletop; assay: Test Example 3: herbicidal effect by foliage application, Wagner pot (Table 18, symbol D); format: in vivo, chinese sprangletop (Leptochloa chinensis); settings: amount of applied herbicide 320 g/ha
How it was run: as §4

[6] = test system: barnyard grass; assay: Test Example 3: herbicidal effect by foliage application, Wagner pot (Table 18, symbol H); format: in vivo, barnyard grass (Echinochloa crus-galli); settings: amount of applied herbicide 320 g/ha
How it was run: as §4

[7] = test system: windgrass; assay: Test Example 5: herbicidal effect by foliage application, plastic box (Table 20, symbol L); format: in vivo, windgrass (Apera spica-venti); settings: foliage application, AAH 320 g/ha, evaluated three weeks after application
How it was run: as §3

[8] = test system: chickweed; assay: Test Example 5: herbicidal effect by foliage application, plastic box (Table 20, symbol P); format: in vivo, common chickweed (Stellaria media); settings: foliage application, AAH 320 g/ha, evaluated three weeks after application
Description: as §1, §2

[9] = test system: lambsquarters; assay: Test Example 5: herbicidal effect by foliage application, plastic box (Table 20, symbol O); format: in vivo, lambsquarters (Chenopodium album); settings: for O: lambsquarters, herbicidal effect grade: three weeks after application
How it was run: as §3

[10] = test system: redroot pigweed; assay: Test Example 5: herbicidal effect by foliage application, plastic box (Table 20, symbol N); format: in vivo, redroot pigweed (Amaranthus retroflexus); settings: for N: redroot pigweed, herbicidal effect grade: three weeks after application
Description: as §1, §2

[11] = test system: velvetleaf; assay: Test Example 5: herbicidal effect by foliage application, plastic box (Table 20, symbol M); format: in vivo, velvetleaf (Abutilon theophrasti); settings: for M: velvetleaf, herbicidal effect grade: three weeks after application
How it was run: as §3

[12] = test system: barnyard grass; assay: Test Example 5: herbicidal effect by foliage application, plastic box (Table 20, symbol H); format: in vivo, barnyard grass (Echinochloa crus-galli); settings: for H: barnyard grass, herbicidal effect grade: three weeks after application
How it was run: as §3

[13] = test system: blackgrass; assay: Test Example 5: herbicidal effect by foliage application, plastic box (Table 20, symbol J); format: in vivo, blackgrass (Alopecurus myosuroides); settings: foliage application, AAH 320 g/ha, evaluated three weeks after application
How it was run: as §3

[14] = test system: southern crabgrass; assay: Test Example 5: herbicidal effect by foliage application, plastic box (Table 20, symbol F); format: in vivo, southern crabgrass (Digitaria ciliaris); settings: for F: southern crabgrass, herbicidal effect grade: three weeks after application
How it was run: as §3

[15] = test system: lambsquarters; assay: Test Example 4: herbicidal effect by soil treatment (Table 19, symbol O); format: in vivo, lambsquarters (Chenopodium album); settings: amount of applied herbicide 320 g/ha
Description: (§5) [Test Example 4] Herbicidal Effect Test by Soil Treatment
as §2, with “Subsequently,” for “Thereafter, the plants were grown in a greenhouse at 25° C. to 30° C. After 14-day growth of the plants,”, “the surface of the soil” for “a foliage part”, “spray. The plastic box was placed in a greenhouse at 25° C. to 30° C. for growth of the plants.” for “spray.”

[16] = test system: velvetleaf; assay: Test Example 4: herbicidal effect by soil treatment (Table 19, symbol M); format: in vivo, velvetleaf (Abutilon theophrasti); settings: amount of applied herbicide 320 g/ha
Description: as §5
as §2, with “Subsequently,” for “Thereafter, the plants were grown in a greenhouse at 25° C. to 30° C. After 14-day growth of the plants,”, “the surface of the soil” for “a foliage part”, “spray. The plastic box was placed in a greenhouse at 25° C. to 30° C. for growth of the plants.” for “spray.”

[17] = test system: barnyard grass; assay: Test Example 4: herbicidal effect by soil treatment (Table 19, symbol H); format: in vivo, barnyard grass (Echinochloa crus-galli); settings: amount of applied herbicide 320 g/ha
Description: as §5
as §2, with “Subsequently,” for “Thereafter, the plants were grown in a greenhouse at 25° C. to 30° C. After 14-day growth of the plants,”, “the surface of the soil” for “a foliage part”, “spray. The plastic box was placed in a greenhouse at 25° C. to 30° C. for growth of the plants.” for “spray.”

[18] = test system: southern crabgrass; assay: Test Example 4: herbicidal effect by soil treatment (Table 19, symbol F); format: in vivo, southern crabgrass (Digitaria ciliaris); settings: amount of applied herbicide 320 g/ha
Description: as §5
as §2, with “Subsequently,” for “Thereafter, the plants were grown in a greenhouse at 25° C. to 30° C. After 14-day growth of the plants,”, “the surface of the soil” for “a foliage part”, “spray. The plastic box was placed in a greenhouse at 25° C. to 30° C. for growth of the plants.” for “spray.”

[19] = test system: green foxtail; assay: Test Example 4: herbicidal effect by soil treatment (Table 19, symbol G); format: in vivo, green foxtail (Setaria viridis); settings: amount of applied herbicide 320 g/ha
Description: as §5
as §2, with “Subsequently,” for “Thereafter, the plants were grown in a greenhouse at 25° C. to 30° C. After 14-day growth of the plants,”, “the surface of the soil” for “a foliage part”, “spray. The plastic box was placed in a greenhouse at 25° C. to 30° C. for growth of the plants.” for “spray.”

[20] = test system: redroot pigweed; assay: Test Example 4: herbicidal effect by soil treatment (Table 19, symbol N); format: in vivo, redroot pigweed (Amaranthus retroflexus); settings: amount of applied herbicide 320 g/ha
Description: as §5
as §2, with “Subsequently,” for “Thereafter, the plants were grown in a greenhouse at 25° C. to 30° C. After 14-day growth of the plants,”, “the surface of the soil” for “a foliage part”, “spray. The plastic box was placed in a greenhouse at 25° C. to 30° C. for growth of the plants.” for “spray.”

[21] = foliage application, AAH 320 g/ha, evaluated three weeks after application
[22] = 320 g/ha, foliage application after 14-day growth, evaluated three weeks after application

Compound | herbicidal effect on E: rice flat sedge [4] | herbicidal effect on D: Chinese sprangletop [5] | herbicidal effect on H: barnyard grass [6] | herbicidal effect, O: lambsquarters [15] | herbicidal effect, M: velvetleaf [16] | G: green foxtail, herbicidal effect grade ([1]; foliage application, 320 g/ha) | herbicidal effect, H: barnyard grass [17] | herbicidal effect, F: southern crabgrass [18] | O: lambsquarters, herbicidal effect grade ([9]; foliage application, 320 g/ha) | N: redroot pigweed, herbicidal effect grade ([10]; foliage application, 320 g/ha) | M: velvetleaf, herbicidal effect grade ([11]; foliage application, 320 g/ha) | H: barnyard grass, herbicidal effect grade ([12]; foliage application, 320 g/ha) | herbicidal effect, G: green foxtail [19] | F: southern crabgrass, herbicidal effect grade ([14]; foliage application, 320 g/ha) | herbicidal effect, N: redroot pigweed [20] | other results
COC(=O)COc1c(C)nn(C)c(=O)c1-c1c(-c2ccc(OC(F)F)cc2)sc2ccc(F)cc12 [2-306] | 3 (Herbicidal rate of 40% or more and less than 70%) | 3 (Herbicidal rate of 40% or more and less than 70%) | 3 (Herbicidal rate of 40% or more and less than 70%) | – | – | – | – | – | – | – | – | – | – | – | – | G: green foxtail, herbicidal effect (criteria 0-5) [1, 21]: 0 (Herbicidal rate of 5% or less (almost no effect)); I: wild oat, herbicidal effect (criteria 0-5) [2]: 0 (Herbicidal rate of 5% or less (almost no effect)); K: Italian ryegrass, herbicidal effect (criteria 0-5) [3]: 0 (Herbicidal rate of 5% or less (almost no effect)); L: windgrass, herbicidal effect (criteria 0-5) [7]: 0 (Herbicidal rate of 5% or less (almost no effect)); P: chickweed, herbicidal effect (criteria 0-5) [8]: 5 (Herbicidal rate of 90% or more (almost completely withered)); O: lambsquarters, herbicidal effect (criteria 0-5) [9, 21]: 2 (Herbicidal rate of 20% or more and less than 40%); N: redroot pigweed, herbicidal effect (criteria 0-5) [10, 21]: 0 (Herbicidal rate of 5% or less (almost no effect)); M: velvetleaf, herbicidal effect (criteria 0-5) [11, 21]: 0 (Herbicidal rate of 5% or less (almost no effect)); H: barnyard grass, herbicidal effect (criteria 0-5) [12, 21]: 0 (Herbicidal rate of 5% or less (almost no effect)); J: blackgrass, herbicidal effect (criteria 0-5) [13]: 0 (Herbicidal rate of 5% or less (almost no effect)); F: southern crabgrass, herbicidal effect (criteria 0-5) [14, 21]: 0 (Herbicidal rate of 5% or less (almost no effect))
COCCOc1ccc(-c2sc3ccc(F)cc3c2-c2c(O)c(N)nn(C)c2=O)cc1 [2-456] | 0 (Herbicidal rate of 5% or less (almost no effect)) | 0 (Herbicidal rate of 5% or less (almost no effect)) | 3 (Herbicidal rate of 40% or more and less than 70%) | 3 (Herbicidal rate of 40% or more and less than 70%) | 0 (Herbicidal rate of 5% or less (almost no effect)) | 1 (Herbicidal rate of 5% or more and less than 20%) | 0 (Herbicidal rate of 5% or less (almost no effect)) | 0 (Herbicidal rate of 5% or less (almost no effect)) | 3 (Herbicidal rate of 40% or more and less than 70%) | 4 (Herbicidal rate of 70% or more and less than 90%) | 3 (Herbicidal rate of 40% or more and less than 70%) | 2 (Herbicidal rate of 20% or more and less than 40%) | 0 (Herbicidal rate of 5% or less (almost no effect)) | 0 (Herbicidal rate of 5% or less (almost no effect)) | 5 (Herbicidal rate of 90% or more (almost completely withered)) | –
Cc1nn(C)c(=O)c(-c2c(-c3ccsc3)sc3ccc(F)cc23)c1O [2-463] | 0 (Herbicidal rate of 5% or less (almost no effect)) | 0 (Herbicidal rate of 5% or less (almost no effect)) | 3 (Herbicidal rate of 40% or more and less than 70%) | 3 (Herbicidal rate of 40% or more and less than 70%) | 3 (Herbicidal rate of 40% or more and less than 70%) | 3 (Herbicidal rate of 40% or more and less than 70%) | 3 (Herbicidal rate of 40% or more and less than 70%) | 2 (Herbicidal rate of 20% or more and less than 40%) | 3 (Herbicidal rate of 40% or more and less than 70%) | 5 (Herbicidal rate of 90% or more (almost completely withered)) | 5 (Herbicidal rate of 90% or more (almost completely withered)) | 3 (Herbicidal rate of 40% or more and less than 70%) | 0 (Herbicidal rate of 5% or less (almost no effect)) | 4 (Herbicidal rate of 70% or more and less than 90%) | 4 (Herbicidal rate of 70% or more and less than 90%) | –
Cc1ccc2c(-c3c(O)c(C)nn(C)c3=O)c(-c3ccc(OC(F)(F)F)cc3)sc2c1 [3-168] | – | – | – | – | – | – | – | – | – | – | – | – | – | – | – | Herbicidal effect by soil treatment, O: lambsquarters [15]: 0 (Herbicidal rate of 5% or less (almost no effect)); Herbicidal effect by soil treatment, M: velvetleaf [16]: 0 (Herbicidal rate of 5% or less (almost no effect)); herbicidal effect on G: green foxtail (evaluation grade 0-5) [1, 22]: 0 (Herbicidal rate of 5% or less (almost no effect)); Herbicidal effect by soil treatment, H: barnyard grass [17]: 0 (Herbicidal rate of 5% or less (almost no effect)); Herbicidal effect by soil treatment, F: southern crabgrass [18]: 0 (Herbicidal rate of 5% or less (almost no effect)); herbicidal effect on O: lambsquarters (evaluation grade 0-5) [9, 22]: 3 (Herbicidal rate of 40% or more and less than 70%); herbicidal effect on N: redroot pigweed (evaluation grade 0-5) [10, 22]: 2 (Herbicidal rate of 20% or more and less than 40%); herbicidal effect on M: velvetleaf (evaluation grade 0-5) [11, 22]: 0 (Herbicidal rate of 5% or less (almost no effect)); herbicidal effect on H: barnyard grass (evaluation grade 0-5) [12, 22]: 0 (Herbicidal rate of 5% or less (almost no effect)); Herbicidal effect by soil treatment, G: green foxtail [19]: 0 (Herbicidal rate of 5% or less (almost no effect)); herbicidal effect on F: southern crabgrass (evaluation grade 0-5) [14, 22]: 0 (Herbicidal rate of 5% or less (almost no effect)); Herbicidal effect by soil treatment, N: redroot pigweed [20]: 3 (Herbicidal rate of 40% or more and less than 70%)

Reference: patent US20230085307A1, “PYRIDAZINONE COMPOUND AND HERBICIDE” (NISSAN CHEMICAL CORPORATION, priority 2019, published 2023)
